Data on one compound can be found in patent publication US20140296143A1, “Angiotensin-(1-7) As A Chemoprevention Agent” (Wake Forest Innovations, priority 2008, published 2014).

The test system of data set [1] is SK-LU-1 lung cancer cells. In kind it is cell-based, human.
Description: During an additional 4 h, cell monolayers were pulsed with ^3H-thymidine (0.25 μCi/well) and harvested.
Data set [2] has as its system ZR-75-1 breast cancer cells. The class given is cell-based, human. How it is done: Unless otherwise stated, cells were grown in DMEM with 10% fetal bovine serum (FBS), […] in a humidified 37° C. incubator gassed with 5% CO2 and 95% room air. Cells were grown to subconfluence in either 24-well cluster plates or 100 mm dishes and made quiescent by treatment for 48 h with serum-depleted growth media, prior to the experiments outlined below to measure cell growth (^3H-thymidine incorporation), cell signaling or apoptosis.
[…] Subsequently, the cell monolayer was washed with cold phosphate-buffered saline (PBS; 50 mM NaPO4, 120 mM NaCl, pH=7.2). The adherent cells were precipitated with cold 10% TCA (4° C. for 30 min) and dissolved in 0.2% SDS in 0.1 N NaOH. Incorporated ^3H-thymidine was determined by liquid scintillation spectrometry, as previously described (Freeman, E. J. et al., Hypertension, 1996, 28:104-108). Growth inhibition was defined as a reduction in the amount of ^3H-thymidine incorporation as compared to the mitogen-stimulated controls.

The subject of the next data set is VEGF mRNA. Briefly: VEGF mRNA in A549 cells by RT-PCR. The class given is cell-based, human. The note with it: 100 nM, 2-4 hours. How it is done: RNA, isolated from cells or tissue, using the TRIzol reagent (GIBCO Invitrogen, Carlsbad, Calif.), was subjected to reverse transcriptase/real-time polymerase chain reaction as previously described (Tallant et al., Am. J. Physiol. Heart Circ. Physiol., 2005, 289:1560-1566). All reactions were performed in triplicate and 18S ribosomal RNA, amplified using the TaqMan Ribosomal RNA Control Kit (Applied Biosystems), served as an internal control. The results were quantified as Ct values, where Ct is defined as the threshold cycle of PCR at which amplified product is first detected, and defined as relative gene expression (the ratio of target/control). […] The RNA concentration was quantified by UV spectroscopy and any degradation assessed by ethidium bromide staining intensity of 28S and 18S ribosomal RNA following agarose gel electrophoresis. […] Following PCR, the amplification products were separated by polyacrylamide gel electrophoresis, visualized by autoradiography, and analyzed using the MCID imaging system.
For reverse-transcriptase real-time PCR, RNA was isolated from cells or tissue, using the TRIzol reagent (GIBCO Invitrogen Corp., Carlsbad, Calif.), as directed by the manufacturer. The RNA concentration and integrity were assessed using an Agilent 2100 Bioanalyzer with an RNA 6000 nano LabChip (Agilent Technologies, Palo Alto, Calif.). […]

Another data set has as its system caspase-9. Briefly: Caspase-9 activity in A549 cell lysates. In kind it is cell-based, human. As to conditions: A549 cells, 100 nM.
For data set [3], the system named is ZR-75-1 breast cancer cells. The note with it: U.S. Pat. No. 7,375,073; cited from earlier work.
For a further data set, the target named is AT1 angiotensin receptor. As to conditions: cited from earlier work.
Another data set addresses T1, AT2 angiotensin receptor (Homo sapiens, UniProt P50052).
T1 sequence (P50052 1-363): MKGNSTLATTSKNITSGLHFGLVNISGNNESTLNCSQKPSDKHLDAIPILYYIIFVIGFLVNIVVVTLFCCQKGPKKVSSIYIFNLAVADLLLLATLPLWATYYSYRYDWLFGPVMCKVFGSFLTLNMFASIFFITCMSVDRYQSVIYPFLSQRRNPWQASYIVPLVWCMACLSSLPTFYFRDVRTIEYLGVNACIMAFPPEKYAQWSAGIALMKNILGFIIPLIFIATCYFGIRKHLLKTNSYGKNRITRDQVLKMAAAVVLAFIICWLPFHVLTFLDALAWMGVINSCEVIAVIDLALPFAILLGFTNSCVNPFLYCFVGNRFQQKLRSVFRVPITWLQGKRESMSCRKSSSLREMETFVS
As to conditions: cited from earlier work.

The subject of the next data set is cellular levels of cAMP. The note with it: 1 μM, in the presence of 1 mM IBMX; n=3; U.S. Pat. No. 7,375,075; cited from earlier work.
The conditions of data set [4]: breast cancer patients, 30 minutes following subcutaneous injection, n=3, Rodgers 2005, cited from earlier work.
For data set [5] the following is noted: rats, Strawn 1999, cited from earlier work.

Values joined by “and” are separate entries in the source; they are usually repeats but may differ in a detail not shown here. Identical values can stand only once. Like-named read-outs stand apart in the source and are kept apart here.

The term IC50 denotes the concentration that inhibits the measured activity by half.

Turning to `CC[C@H](C)[C@H](NC(=O)[C@H](Cc1ccc(O)cc1)NC(=O)[C@@H](NC(=O)[C@H](CCCNC(=N)N)NC(=O)[C@@H](N)CC(=O)O)C(C)C)C(=O)N[C@@H](Cc1c[nH]cn1)C(=O)N1CCC[C@H]1C(=O)O` [Ang-(1-7), Asp-Arg-Val-Tyr-Ile-His-Pro], the “^3H-thymidine incorporation over time of treatment” value in [1] (SK-LU-1, 1% FBS, daily addition of 100 nM) is “progressively reduced”; in data set [2] (ZR-75-1, 1% FBS, daily addition of 100 nM), “progressively reduced”. For the same compound, the “effect on serum-stimulated ^3H-thymidine incorporation” value in data set [1] (SK-LU-1, peptide at 1 or 100 nM) was “reduced”. This compound also had an IC50 in data set [2] (48 h) of 0.02 nM. The maximal inhibition in data set [2] (ZR-75-1) was determined as 37.2±6.1. Further, in the data set with VEGF mRNA, the “optimal reduction of VEGF mRNA” value was “greater than 50%”. Moreover, the caspase-9 activity entry with caspase-9 is on record as “no effect”. Also, in [3], the “inhibition of PDGF- or EGF-stimulated ^3H-thymidine incorporation” value is “at least 50%”. In addition, on AT1 angiotensin receptor (Tallant et al., 1999), the half-maximal inhibitory concentration (IC50) at the AT1 angiotensin receptor is “micromolar range”. The “competition at the AT1 receptor” value in the data set on AT1 angiotensin receptor (literature) is listed as “poor competitor”. Further, on AT2 angiotensin receptor (Tallant et al., 1999), the “IC50 at the AT2 angiotensin receptor” value was “micromolar range”. On AT2 angiotensin receptor (literature), the “competition at the AT2 receptor” value is on record as “poor competitor”. Besides, the “cellular levels of cAMP” value in the data set with cellular levels of cAMP is listed as 131.9±9.7 % of basal. Moreover, the “plasma Ang-(1-7)” value in data set [4] (100 μg/kg/day) is 3209.5 pg/mL and 3.6 nM; in [4] it was 49.43 pg/mL and 0.055 nM. In data set [5] (24 μg/kg/h intravenous, 12 days, n=6-8, from 0.052±0.005), the “Ang-(1-7) in the circulation” value was 0.185 ± 0.046 nM. For the same compound, the “tolerability: weight, blood pressure, heart rate” value in data set [5] (24 μg/kg/hr) is “no change in weight, blood pressure, or heart rate”.
